Test results reported in patent US5310741A, “TAN-1251 compounds and their production from penicillium thomii” (Takeda Chemical Industries, Ltd., priority 1990, dated 1994).

What was measured:
[1] = biological target: Muscarinic receptor; assay type: binding, Wistar rat; conditions: 3H-QNB radioligand, room temperature, 60 minutes; read-out: Radio receptor assay IC50
[2] = tested on: acetylcholine-induced contraction of the isolated Guinea pig ileum; assay: Antagonizing activity against acetylcholine-induced contraction of the isolated Guinea pig ileum; design: species or system Guinea pig (Std Hartley); conditions: Cavia porcellus, 5 min; acetylcholine 1×10^-7 M, 37° C., 5 minutes equilibration; read-out: Guinea pig ileal contractility ED50 (50% inhibition of the maximal contraction)
Experimental: (b) Antagonizing activity against acetylcholine-induced contraction of the isolated Guinea pig ileum
A Guinea pig (Std Hartley, male, 250 g, Japan SLC) deprived of food for 24 hours was subjected to brain concussion and after exsanguination from the carotid artery, the ileum was isolated. An ileal strip, about 3 cm long, was prepared and suspended in a Magnus tube containing 20 ml of Tyrode solution. At a constant bath temperature of 37° C., a mixed gas (95% O2 -5% CO2) was bubbled through the bath. The sample was added and after 5 minutes of equillibration, acetylcholine (Daiichi Seiyaku, Japan) was added at a final concentration of 1×10^-7 M to induce contraction of the ileal strip. The contraction was recorded through an isotonic transducer (ME-4013, Suruga Electronics, Japan) on a recorder (Rectiholy 8K, Japan Electronics Sanei, Japan). The activity of the same was expressed in ED50 representing 50% inhibition of the maximal contraction.

[3] = tested on: mice; assay: Acute toxicity, oral administration in mice; assay type: in vivo; conditions: 100 mg/kg
Experimental: For assessment of the acute toxicity of TAN-1251, an oral administration experiment using TAN-1251A and B was performed in mice.

[4] = assay type: physicochemical
Text: Below presented as the physicochemical properties of the respective species of TAN-1251 prepared in the Examples given hereinafter.

SMILES	IC50 [1] [nM]	IC50 [2] [nM]	toxic signs (acute toxicity) [3]	Properties (basicity and liposolubility) [4]
CC(C)=CCOc1ccc(C=C2CN(C)C3CN2C2(CCC(=O)CC2)C3)cc1 (stereo not shown) [Compound 1]	5.7	8	no toxic signs were observed	Basic and liposoluble
CC(C)=CCOc1ccc(C=C2CN(C)C3CN2C2(CCC(=O)C(O)C2)C3)cc1 (stereo not shown) [Compound 2]	0.13	13	no toxic signs were observed	Basic and liposoluble
CC(C)=CCOc1ccc(CC2=CN(C)C3CN2C2(CCC(=O)CC2)C3)cc1 (stereo not shown) [Compound 3]				Basic and liposoluble
CC(C)=CCOc1ccc(CC2CN(C)C3CN2C2(CCC(=O)CC2)C3)cc1 (stereo not shown) [Compound 4]				Basic and liposoluble
